Data from article PMC4627800, “Allelic Variation of Cytochrome P450s Drives Resistance to Bednet Insecticides in a Major Malaria Vector” (PLoS Genetics, 2015).

Assays:
UGANCYP6P9a [1] = biological target: T1, UGANCYP6P9a (Anopheles funestus, UniProt B5AII6); test: Pyrethroid depletion (metabolism) assay with recombinant enzyme; assay type: biochemical; conditions: 20μM insecticide, 1 hour, vs -NADPH
Experimental: Membrane expressing recombinant CYP6P9a/-b and AgCPR, and reconstituted cytochrome b5 were added to the side of the tube and pre-incubated for 5 minutes at 30°C, with shaking at 1,200 rpm to activate the membrane. 20μM of test insecticide was then added into the final volume of 0.2ml (~2.5% v/v methanol), and reaction started by vortexing at 1,200 rpm and 30°C for 1 hour. Reactions were quenched with 0.1ml ice-cold methanol and incubated for 5 more minutes. Tubes were then centrifuged at 16,000 rpm and 4°C for 15 minutes, and 150μl of supernatant transferred into HPLC vials for analysis. Reactions were carried out in triplicates with experimental samples (+NADPH) and negative controls (-NADPH). 100μl of sample was loaded onto an isocratic mobile phase (90:10 v/v methanol to water) with a flow rate of 1ml/min, monitoring wavelength of 226nm and peaks separated with a 250mm C18 column (Acclaim 120, Dionex) on Agilent 1260 Infinity at 23°C. Enzyme activity was calculated as percentage depletion (the difference in the amount of insecticide(s) remaining in the +NADPH tubes compared with the–NADPH) and a t-test used for statistical analysis.

BENCYP6P9a = BENCYP6P9a (Anopheles funestus, UniProt A0A0S1RZ75); test: Steady-state kinetics of pyrethroid metabolism; assay type: biochemical
Experimental: (§1) Reactions were performed in triplicates both for +NADPH (experimental tubes) and–NADPH (negative control). K m and V max were established from the plot of substrate concentrations against the initial velocities and fitting of the data to the Michaelis-Menten module using the least squares non-linear regression, as described in the GraphPad Prism 6.03 Software (GraphPad Inc., La Jolla, CA, USA).

BENCYP6P9b = BENCYP6P9b (Anopheles funestus, UniProt A0A0S1S7Y0); test: Steady-state kinetics of pyrethroid metabolism; assay type: biochemical
Experimental: as §1

MALCYP6P9a = MALCYP6P9a (Anopheles funestus, UniProt B5AII6); test: Steady-state kinetics of pyrethroid metabolism; assay type: biochemical
Experimental: as §1

MALCYP6P9b = MALCYP6P9b (Anopheles funestus, UniProt B5AII7); test: Steady-state kinetics of pyrethroid metabolism; assay type: biochemical
Experimental: as §1

UGANCYP6P9a [2] = biological target: T1, UGANCYP6P9a; test: Steady-state kinetics of pyrethroid metabolism; assay type: biochemical
Experimental: as §1

[3] = biological target: wild type recombinant MALCYP6P9b (wrMALCYP6P9b) (Anopheles funestus, UniProt B5AII7)
Experimental: as §1
In addition, fluorescent probes were also screened to establish differences in the O-dealkylation activity of the mutants compared with the wild type enzyme. All in vitro and kinetic analyses were conducted as described above. However, as different mutants expressed with varying concentrations all assays were conducted within linear range, with the amount of enzyme and time which produced highest activities.

Q: For `CC1(C)C(C=C(Cl)Cl)C1C(=O)OCc1cccc(Oc2ccccc2)c1` (stereo not shown) [permethrin], which Percentage depletion (UGANCYP6P9a [1]) is on record?
A: Its Percentage depletion is 60.71±0.92 %.

Q: What about the Kcat (BENCYP6P9a) of the same molecule?
A: Its Kcat is 9.37±3.32^a min^-1.

Q: And the “Kcat, fold higher than FANGCYP6P9a” value (BENCYP6P9a; BENCYP6P9a vs FANGCYP6P9a)?
A: Its value is 2 fold.

Q: What about the “catalytic efficiency, fold higher than FANGCYP6P9a” value (BENCYP6P9a; BENCYP6P9a vs FANGCYP6P9a) of the same molecule?
A: Its value is 3 fold.

Q: And the Kcat (BENCYP6P9b)?
A: The Kcat was 15.91±5.45^b min^-1.

Q: What about the “Kcat, fold higher than FANGCYP6P9b” value (BENCYP6P9b; BENCYP6P9b vs FANGCYP6P9b) of the same molecule?
A: Its value is 4 fold.

Q: And the Kcat (MALCYP6P9a)?
A: Its Kcat is 15.41±6.30^a min^-1.

Q: What about the Km (MALCYP6P9a) of the same molecule?
A: The Km was 18.8 ± 11.8 µM.

Q: And the “Kcat, fold higher than FANGCYP6P9a” value (MALCYP6P9a; MALCYP6P9a vs FANGCYP6P9a)?
A: The value was 3 fold.

Q: What about the “catalytic efficiency, fold higher than FANGCYP6P9a” value (MALCYP6P9a; MALCYP6P9a vs FANGCYP6P9a) of the same molecule?
A: The value was 6 fold.

Q: And the Kcat (MALCYP6P9b)?
A: The Kcat was 12.38±4.5^b min^-1.

Q: And the Km (MALCYP6P9b)?
A: The Km was 12.7 ± 2.68 µM.

Q: What about the “Kcat, fold higher than FANGCYP6P9b” value (MALCYP6P9b; MALCYP6P9b vs FANGCYP6P9b) of the same molecule?
A: The value was 3 fold.

Q: What about the “catalytic efficiency, fold more efficient than FANGCYP6P9b” value (MALCYP6P9b; MALCYP6P9b vs FANGCYP6P9b) of the same molecule?
A: The value was 5 fold.

Q: What about the Kcat (UGANCYP6P9a [2]) of the same molecule?
A: Its Kcat is 0.122 ± 0.017 s⁻¹.

Q: And the “Kcat, fold higher than FANGCYP6P9a” value (UGANCYP6P9a [2]; UGANCYP6P9a vs FANGCYP6P9a)?
A: The value was 2 fold.

Q: What about the “catalytic efficiency, fold higher than FANGCYP6P9a” value (UGANCYP6P9a [2]; UGANCYP6P9a vs FANGCYP6P9a) of the same molecule?
A: The value was 3 fold.

Q: And the Kcat [3]?
A: Its Kcat is 0.1317 ± 0.0138 s⁻¹.

Q: And the Km [3]?
A: The Km was 10.3 ± 2.38 µM.
